Assay results published in patent US8129527B2, “Analogs of dehydrophenylahistins and their therapeutic use” (Nereus Pharmacuticals, Inc., priority 2006, dated 2012).
Where two headings read alike, the source gives them in different places.

System: HT-29 cells
Experiment: Additional cytotoxicity assays, resazurin (Table 3.1)
Type: cell-based, human
Settings: for EC50: Homo sapiens
Method: 10× concentrated serial dilutions of the two compounds were prepared in appropriate culture medium for final concentrations ranging from 2.0×10^−5 M to 2.0×10^−10 M. Ten μl volumes of the 10× serial dilutions were added to the test wells in triplicate and the plates returned to the incubator for 48 hours.
Following 48 hours of drug exposure 10 μl of 0.2 mg/ml resazurin (obtained from Sigma-Aldrich Chemical Co.) in Mg^2+, Ca^2+ free PBS was added to each well and the plates were returned to the incubator for 3-4 hours. […] Resazurin dye without cells was used to determine the background, which was subtracted from the data for all experimental wells. The data were analyzed using Prism software (GraphPad Software).
Additional cytotoxicity assays were performed as described above under this example, using Resazurin fluorescence as an indicator of cell viability.

[1] = HT-29, Table 3.1, read-out: EC50 (M) Mean

SMILES: C=CC(C)(C)c1[nH]cnc1/C=C1\N=C(OC)C(Cc2ccccc2)N=C1OC (racemic) [Compound 2354, D,L-bislactim-PLH]
- EC50 [1]: > 2e-05 M
- % cytotox Mean (Table 3.1): 4%

SMILES: C=CC(C)(C)c1[nH]cnc1/C=C1\NC(=O)C(Cc2ccccc2)N=C1OC (racemic) [Compound 2355, D,L-monolactim-PLH]
- EC50 [1]: > 2e-05 M
- % cytotox Mean (Table 3.1): 13%

SMILES: C=CC(C)(C)c1[nH]cnc1/C=C1\NC(=O)[C@H](Cc2ccccc2)NC1=O [Compound 2350, (−)-(S)-Halimide, (−)-(S)-Phenylahistin, (−)-(S)-PLH, reference compound]
- EC50 [1]: 3.94e-07 M
- % cytotox Mean (Table 3.1): 87%

SMILES: C=CC(C)(C)c1[nH]cnc1/C=c1\[nH]c(=O)/c(=C/c2ccccc2)[nH]c1=O [Compound 2352, Dehydrophenylahistin]
- EC50 [1]: 4.26e-08 M
- % cytotox Mean (Table 3.1): 86%

SMILES: C=CC(C)(C)c1[nH]cnc1/C=c1\[nH]c(=O)/c(=C\c2ccc(OC)cc2)[nH]c1=O [Compound 2357]
- EC50 [1]: 8.25e-06 M
- % cytotox Mean (Table 3.1): 63%

SMILES: CC(C)(C)c1[nH]cnc1/C=c1\[nH]c(=O)/c(=C/c2ccccc2)[nH]c1=O [Compound 2358, t-butyl-delta-PLH]
- EC50 (HT-29, read-out: EC50 (M) Mean): 1.49e-08 M
- % cytotox Mean (Table 3.1): 86%

SMILES: COc1cc(/C=c2\[nH]c(=O)/c(=C/c3nc[nH]c3C(C)(C)C)[nH]c2=O)cc(OC)c1OC [Compound 2362, tBu-ΔPLH-3,4,5-triOMe]
- EC50 (HT-29, read-out: EC50 (M) Mean): 8.19e-06 M
- % cytotox Mean (Table 3.1): 78%

SMILES: COc1cc(/C=c2\[nH]c(=O)/c(=C/c3nc[nH]c3C(C)(C)C)[nH]c2=O)cc(OC)c1 [Compound 2367, tBu-delta-3,5-diOMe]
- EC50 [1]: 4.54e-08 M
- % cytotox Mean (Table 3.1): 87%

SMILES: COc1ccc(/C=c2\[nH]c(=O)/c(=C/c3nc[nH]c3C(C)(C)C)[nH]c2=O)c(OC)c1OC [Compound 2368, tBu-delta-PLH-2,3,4-triOMe]
- EC50 [1]: 4.8e-06 M
- % cytotox Mean (Table 3.1): 78%

SMILES: CC(C)(C)c1[nH]cnc1/C=c1\[nH]c(=O)/c(=C/c2cc([N+](=O)[O-])ccc2Cl)[nH]c1=O [Compound 2371, tBu-delta-PLH-2-Cl-5-NO2]
- EC50 [1]: 5.34e-08 M
- % cytotox Mean (Table 3.1): 86%

SMILES: CC(C)(C)c1[nH]cnc1/C=c1\[nH]c(=O)/c(=C/c2ccc3c(c2)OCO3)[nH]c1=O [Compound 2372, tBu-delta-PLH-3,4-methylene-dioxy]
- EC50 [1]: 8.73e-08 M
- % cytotox Mean (Table 3.1): 84%

SMILES: COc1cccc(/C=c2\[nH]c(=O)/c(=C/c3nc[nH]c3C(C)(C)C)[nH]c2=O)c1O [Compound 2373, tBu-delta-PLH-2-OH-3-OMe (o-vanillin)]
- EC50 [1]: 5.36e-06 M
- % cytotox Mean (Table 3.1): 79%

SMILES: COc1cccc2cc3c(=O)[nH]/c(=C\c4nc[nH]c4C(C)(C)C)c(=O)n3c12 [Compound 2374, tBu-delta-PLH-cyclized-3-MeO]
- EC50 [1]: 6.92e-06 M
- % cytotox Mean (Table 3.1): 58%

SMILES: Cc1ccc(/C=c2\[nH]c(=O)/c(=C/c3nc[nH]c3C(C)(C)C)[nH]c2=O)s1 [Compound 2378, tBu-delta-PLH-5-Me-2-thienyl]
- EC50 [1]: 8.52e-08 M
- % cytotox Mean (Table 3.1): 85%

SMILES: Cc1ccsc1/C=c1\[nH]c(=O)/c(=C/c2nc[nH]c2C(C)(C)C)[nH]c1=O [Compound 2379, tBu-delta-PLH-3-Me-2-thienyl]
- EC50 [1]: 4.7e-08 M
- % cytotox Mean (Table 3.1): 86%

SMILES: CC(C)(C)c1[nH]cnc1/C=c1\[nH]c(=O)/c(=C/c2cccc3c2OCO3)[nH]c1=O [Compound 2381, tBu-delta-PLH-2,3-methylendioxy]
- EC50 [1]: 5.2e-07 M
- % cytotox Mean (Table 3.1): 82%

SMILES: Cc1cccc(/C=c2\[nH]c(=O)/c(=C/c3nc[nH]c3C(C)(C)C)[nH]c2=O)n1 [Compound 2384, tBu-delta-PLH-3-Me-2-pyridyl]
- EC50 [1]: > 2e-05 M
- % cytotox Mean (Table 3.1): 37%

SMILES: Cc1[nH]cnc1/C=c1\[nH]c(=O)/c(=C/c2nc[nH]c2C(C)(C)C)[nH]c1=O [Compound 2387, tBu-delta-PLH-5-Me-4-im]
- EC50 [1]: 2.35e-06 M
- % cytotox Mean (Table 3.1): 84%

SMILES: CC(C)(C)c1[nH]cnc1/C=c1\[nH]c(=O)/c(=C/c2ccc(C#N)cc2)[nH]c1=O [Compound 2394, tBu-delta-PLH-p-CN]
- EC50 [1]: > 2e-05 M
- % cytotox Mean (Table 3.1): 14%

SMILES: COc1cc(OC)c(/C=c2\[nH]c(=O)/c(=C/c3nc[nH]c3C(C)(C)C)[nH]c2=O)c(OC)c1 [Compound 2396, tBu-delta-PLH-2,4,6-TriOMe]
- EC50 [1]: > 2e-05 M
- % cytotox Mean (Table 3.1): 2%

SMILES: CC(C)(C)c1[nH]cnc1/C=c1\[nH]c(=O)/c(=C/c2cc(Cl)ccc2[N+](=O)[O-])[nH]c1=O [Compound 2403, tBu-delta-PLH-2-NO2-5-Cl]
- EC50 [1]: 9.97e-08 M
- % cytotox Mean (Table 3.1): 86%

SMILES: COc1ccc(O)c(/C=c2\[nH]c(=O)/c(=C/c3nc[nH]c3C(C)(C)C)[nH]c2=O)c1 [Compound 2405, tBu-delta-PLH-2-OH-5-OMe]
- EC50 [1]: > 2e-05 M
- % cytotox Mean (Table 3.1): 25%

SMILES: CC(C)(C)c1[nH]cnc1/C=c1\[nH]c(=O)/c(=C/c2cc(Br)ccc2O)[nH]c1=O [Compound 2407, tBu-delta-PLH-2-OH-5-Br]
- EC50 [1]: > 2e-05 M
- % cytotox Mean (Table 3.1): 13%

SMILES: COc1ccc(/C=c2\[nH]c(=O)/c(=C/c3nc[nH]c3C(C)(C)C)[nH]c2=O)cc1O [Compound 2408, tBu-delta-PLH-3-OH-4-OMe]
- EC50 [1]: 7.48e-06 M
- % cytotox Mean (Table 3.1): 66%

SMILES: COc1ccc(/C=c2\[nH]c(=O)/c(=C/c3nc[nH]c3C(C)(C)C)[nH]c2=O)c(O)c1 [Compound 2409, tBu-delta-PLH-2-OH-4-OMe]
- EC50 [1]: > 2e-05 M
- % cytotox Mean (Table 3.1): 8%

SMILES: CC(C)(C)c1[nH]cnc1/C=c1\[nH]c(=O)/c(=C/c2cc(Cl)ccc2O)[nH]c1=O [Compound 2410, tBu-delta-PLH-2-OH-5-Cl]
- EC50 [1]: > 2e-05 M
- % cytotox Mean (Table 3.1): 37%

SMILES: CC(C)(C)c1[nH]cnc1/C=c1\[nH]c(=O)/c(=C/c2ccc(Cl)s2)[nH]c1=O [Compound 2412, tBu-delta-PLH-5-Cl-2-thionyl]
- EC50 (HT-29, read-out: EC50 (M) Mean): 1.65e-07 M
- % cytotox Mean (Table 3.1): 85%

SMILES: Cn1cccc1/C=c1\[nH]c(=O)/c(=C/c2nc[nH]c2C(C)(C)C)[nH]c1=O [Compound 2414, tBu-delta-PLH-N-Me-2-pyrrole]
- EC50 [1]: 1.17e-07 M
- % cytotox Mean (Table 3.1): 88%

SMILES: CC(C)(C)c1[nH]cnc1/C=c1\[nH]c(=O)/c(=C/c2cc(Cl)cc(Cl)c2)[nH]c1=O [Compound 2415, tBu-delta-PLH-3,5-diCl]
- EC50 [1]: 9.49e-08 M
- % cytotox Mean (Table 3.1): 87%

SMILES: CC(C)(C)c1ccc(O)c(/C=c2\[nH]c(=O)/c(=C/c3ccccc3)[nH]c2=O)c1 [Compound 2422, tBu-delta-PLH-2-Hydroxybenzyl]
- EC50 [1]: > 2e-05 M
- % cytotox Mean (Table 3.1): 14%

SMILES: CC(C)(C)c1[nH]cnc1/C=c1\[nH]c(=O)/c(=C/c2cc(Br)cs2)[nH]c1=O [Compound 2423, tBu-delta-PLH-4-Br-2-thionyl]
- EC50 [1]: 1.71e-07 M
- % cytotox Mean (Table 3.1): 86%

SMILES: CCc1ccc(/C=c2\[nH]c(=O)/c(=C/c3nc[nH]c3C(C)(C)C)[nH]c2=O)s1 [Compound 2424, tBu-delta-PLH-5-Et-2-thionyl]
- EC50 [1]: 1.32e-07 M
- % cytotox Mean (Table 3.1): 87%

SMILES: CC(C)(C)c1[nH]cnc1/C=c1\[nH]c(=O)/c(=C/c2ccc(Br)o2)[nH]c1=O [Compound 2425, tBu-delta-PLH-5-Br-2-furyl]
- EC50 [1]: 3.05e-08 M
- % cytotox Mean (Table 3.1): 87%

SMILES: CCc1ccc(/C=c2\[nH]c(=O)/c(=C/c3nc[nH]c3C(C)(C)C)[nH]c2=O)o1 [Compound 2426, tBu-delta-PLH-5-Et-2-furyl]
- EC50 [1]: 2.42e-07 M
- % cytotox Mean (Table 3.1): 86%

SMILES: CC(C)(C)c1[nH]cnc1/C=c1\[nH]c(=O)/c(=C/c2cc(I)ccc2F)[nH]c1=O [Compound 2428, tBu-delta-PLH-2-F-5-I]
- EC50 [1]: 4.17e-08 M
- % cytotox Mean (Table 3.1): 87%

SMILES: CSc1ccccc1/C=c1\[nH]c(=O)/c(=C/c2nc[nH]c2C(C)(C)C)[nH]c1=O [Compound 2429, tBu-delta-PLH-2-(Methylthio)]
- EC50 [1]: 2.86e-08 M
- % cytotox Mean (Table 3.1): 87%

SMILES: CC(C)(C)c1[nH]cnc1/C=c1\[nH]c(=O)/c(=C/c2cccc(OC(F)(F)F)c2)[nH]c1=O [Compound 2430, tBu-delta-PLH-m-OCF3]
- EC50 [1]: 1.43e-08 M
- % cytotox Mean (Table 3.1): 87%

SMILES: COc1ccc(F)c(/C=c2\[nH]c(=O)/c(=C/c3nc[nH]c3C(C)(C)C)[nH]c2=O)c1 [Compound 2431, tBu-delta-PLH-2-F5-OMe]
- EC50 [1]: 2.03e-08 M
- % cytotox Mean (Table 3.1): 88%

SMILES: COc1cc(/C=c2\[nH]c(=O)/c(=C/c3nc[nH]c3C(C)(C)C)[nH]c2=O)ccc1F [Compound 2432, tBu-delta-PLH-4-F-3-OMe]
- EC50 [1]: 4.93e-07 M
- % cytotox Mean (Table 3.1): 85%

SMILES: CC(C)(C)c1ccc(O)c(/C=c2\[nH]c(=O)/c(=C/c3nc[nH]c3C(C)(C)C)[nH]c2=O)c1 [Compound 2433, tBu-delta-PLH-2-OH-5-tBU]
- EC50 [1]: 8.53e-06 M
- % cytotox Mean (Table 3.1): 80%

SMILES: Cc1c(F)cccc1/C=c1\[nH]c(=O)/c(=C/c2nc[nH]c2C(C)(C)C)[nH]c1=O [Compound 2435, tBu-delta-PLH-2-Me-3-F]
- EC50 [1]: 3.34e-08 M
- % cytotox Mean (Table 3.1): 86%

SMILES: Cc1ccc(F)c(/C=c2\[nH]c(=O)/c(=C/c3nc[nH]c3C(C)(C)C)[nH]c2=O)c1 [Compound 2436, tBu-delta-PLH-2-F-5-Me]
- EC50 [1]: 2.5e-08 M
- % cytotox Mean (Table 3.1): 86%

SMILES: Cc1cccc(/C=c2\[nH]c(=O)/c(=C/c3nc[nH]c3C(C)(C)C)[nH]c2=O)c1C [Compound 2439, tBu-delta-PLH-2,3-di-Me]
- EC50 [1]: 2.96e-09 M
- % cytotox Mean (Table 3.1): 87%

SMILES: COc1cccc(/C=c2\[nH]c(=O)/c(=C/c3nc[nH]c3C(C)(C)C)[nH]c2=O)c1[N+](=O)[O-] [Compound 2441, tBu-delta-PLH-2-NO2-3-OMe]
- EC50 [1]: 6.63e-07 M
- % cytotox Mean (Table 3.1): 83%

SMILES: Cc1ccc(C)c(/C=c2\[nH]c(=O)/c(=C/c3nc[nH]c3C(C)(C)C)[nH]c2=O)c1 [Compound 2442, tBu-delta-PLH-2,5-diMe]
- EC50 [1]: 8.82e-08 M
- % cytotox Mean (Table 3.1): 87%
